According to patent publication US20030176436A1, “Novel heterocyclic compounds as selective bacterial DHFR inhibitors and their uses thereof” (priority 2001, published 2003):
≈ marks a conversion by molar mass, not a printed value.

biological target: T1, bacterial DHFR (bDHFR) (Escherichia coli, UniProt P0ABQ4); assay: DHFR enzyme assay, Ki determination, bacterial DHFR; format: biochemical, E. coli; settings: Table 3; read-out: bDHFR Ki
T1 construct: gift of Eric Brown, McMaster University
Method: Human and Bacterial DHFR: E. coli DHFR was kindly provided by Eric Brown of MacMaster University.
(§1) Dihydrofolic acid and NADPH were purchased from Sigma. Enzyme assays were adapted for microtitre format from a previously published procedure (2, 3). All assays were performed in a 250 μl volume in 96-well microtitre plates. Typical assays consisted of 20 nM DHFR (human or E. coli), 100 μM NADPH, and 50 μM dihydrofolic acid in 100 mM HEPES pH 8, 10 mM KCl, and 10 mM MgCl2. The assay was monitored spectrophotometrically for the conversion of NADPH to NADP+, which results in a decrease in absorbance at 340 nm.
(§2) The reaction was initiated by the addition of 125 μl of 100 μM dihydrofolic acid. The final concentrations in the assay were 20 nM DHFR, 100 μM NADPH, 50 μM dihydrofolic acid, and a range of 500 μM to 20 nM inhibitor compound. The final DMSO concentration was 2% of the total volume. Reactions were monitored as described above.

Q: With `Nc1nc(N)c2nc(CNc3ccc([N+](=O)[O-])cc3O)cnc2n1` [Compound 12] as the molecule, how does the Ki read?
A: 100 to 499 nM

Q: For `CN(Cc1cnc2nc(N)nc(N)c2n1)c1ccc(C(=O)Nc2ccc(O)cc2)cc1` [Compound 1], which Ki is on record?
A: < 100 nM

Q: For `Nc1nc(N)c2nc(CNc3ccc4c(c3)OCO4)cnc2n1` [Compound 8], which Ki is on record?
A: 1000 to 5000 nM

Q: With `Nc1nc(N)c2nc(CNc3cccc([N+](=O)[O-])c3)cnc2n1` [Compound 7] as the molecule, how does the Ki read?
A: 100 to 499 nM

biological target: T2, human DHFR (hDHFR) (Homo sapiens, UniProt P00374); assay: DHFR enzyme assay, Ki determination, human DHFR; format: biochemical; settings: Table 3
T2 construct: result in the amplification of a 186 amino acid hDHFR coding region; made in house; host or cells: E. coli Top10
T2 sequence (P00374 1-187): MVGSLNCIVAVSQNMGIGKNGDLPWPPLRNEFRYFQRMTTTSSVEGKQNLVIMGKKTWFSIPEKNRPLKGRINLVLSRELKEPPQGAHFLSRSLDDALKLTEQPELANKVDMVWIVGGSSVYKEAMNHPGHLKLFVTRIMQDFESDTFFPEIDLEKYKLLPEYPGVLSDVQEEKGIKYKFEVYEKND
Method: The human DHFR cDNA was cloned by PCR from the Human Universal Quick-clone™ cDNA purchased from Clontech.
The PCR fragment was digested with restriction enzymes NdeI and HindIII, and then ligated into a derivative of the pKK223-3 expression vector (Amersham Pharmacia). The final expression vector (pFW96.2) was transformed into E. coli Top10 F40 and hDHFR protein was induced by the addition of 1 mM IPTG followed by incubation at 37° C. for 4 hrs. Recombinant human DHFR was purified based on a previously published procedure (2).
as §1
as §2, with “Five microliters of inhibitor compound in DMSO was added to 120 μl of enzyme solution (40 nM DHFR and 200 μM NADPH). The reaction” for “The reaction”
V=(Vmax[S])/(Km(1+I/Ki)+[S]), where S=dihydrofolate, Km=Michaelis constant for dihydrofolate, I=inhibitor concentration.

Q: With `Nc1nc(N)c2nc(CNc3ccc([N+](=O)[O-])cc3O)cnc2n1` [Compound 12] as the molecule, how does the Ki read?
A: 1000 to 5000 nM

Q: Which Ki does the source give for `CN(Cc1cnc2nc(N)nc(N)c2n1)c1ccc(C(=O)Nc2ccc(O)cc2)cc1` [Compound 1] here?
A: 500 to 999 nM

Q: Which Ki does the source give for `Nc1nc(N)c2nc(CNc3ccc4c(c3)OCO4)cnc2n1` [Compound 8] here?
A: > 5000 nM

Q: With `Nc1nc(N)c2nc(CNc3cccc([N+](=O)[O-])c3)cnc2n1` [Compound 7] as the molecule, how does the Ki read?
A: > 5000 nM

test system: E. coli; assay: Microdilution antimicrobial susceptibility test (MIC); format: cell-based; settings: Escherichia coli; Table 2; 90% inhibition of growth
Method: (§3) Stock solutions of tested compounds were prepared in N,N-dimethylformamide (DMF) at a concentration of 5 mg/mL. Working solutions of the tested compounds were then prepared from the stock solutions, in Mueller-Hinton broth (MHB) with a starting concentration of 64 μg/mL.
(§4) Bacterial inocula were prepared from overnight culture (i.e., one fresh colony from agar plate in 5 ml MHB; H. influenzae was grown in MHB with the addition of yeast extract, haematin, and NAD), centrifuged 2×5 min/3000 rpm (for S. pneumoniae and H. influenzae, 2×10 min/3000 rpm), and dispensed in 5 ml of fresh MHB each time, such that the bacterial suspension is diluted to obtain 100 colony forming units (cfu) in a microplate well (100 μl total volume).
(§5) Microplate wells were filled with two-fold dilutions of test compound (50 μl), starting with 64 μg/ml. Wells were then filled with 50 μl of bacterial inoculum (final volume: 100 μl/well). The plates were incubated at 37° C. for 18-24 hours (S. pneumoniae was grown in a CO2-enriched atmosphere).

Q: `Nc1nc(N)c2nc(CNc3ccc([N+](=O)[O-])cc3O)cnc2n1` [Compound 12] was tested. Which MIC did it give?
A: > 64 µg/mL

Q: `CN(Cc1cnc2nc(N)nc(N)c2n1)c1ccc(C(=O)Nc2ccc(O)cc2)cc1` [Compound 1] was tested. Which MIC did it give?
A: > 64 µg/mL

Q: Which MIC does the source give for `Nc1nc(N)c2nc(CNc3ccc4c(c3)OCO4)cnc2n1` [Compound 8] here?
A: > 64 µg/mL

Q: `Nc1nc(N)c2nc(CNc3cccc([N+](=O)[O-])c3)cnc2n1` [Compound 7] was tested. Which MIC did it give?
A: > 64 µg/mL

test system: E. faecalis; assay: as above; format: cell-based; settings: Enterococcus faecalis; Table 2; 90% inhibition of growth
Method: as §3, §4, §5

Q: `CN(Cc1cnc2nc(N)nc(N)c2n1)c1ccc(C(=O)Nc2ccc(O)cc2)cc1` [Compound 1] was tested. Which MIC did it give?
A: 16 to 64 µg/mL (≈ 38.4 to 154 µM)

Q: With `Nc1nc(N)c2nc(CNc3ccc4c(c3)OCO4)cnc2n1` [Compound 8] as the molecule, how does the MIC read?
A: 2 to 8 µg/mL (≈ 6.42 to 25.7 µM)

Q: With `Nc1nc(N)c2nc(CNc3cccc([N+](=O)[O-])c3)cnc2n1` [Compound 7] as the molecule, how does the MIC read?
A: < 2 µg/mL

test system: H. influenzae; assay: as above; format: cell-based; settings: Haemophilus influenzae; Table 2; 90% inhibition of growth; read-out: MIC H. influenzae
Method: as §3, §4, §5

Q: `Nc1nc(N)c2nc(CNc3ccc([N+](=O)[O-])cc3O)cnc2n1` [Compound 12] was tested. Which MIC did it give?
A: 2 to 8 µg/mL (≈ 6.09 to 24.4 µM)

Q: How did the MIC turn out when `CN(Cc1cnc2nc(N)nc(N)c2n1)c1ccc(C(=O)Nc2ccc(O)cc2)cc1` [Compound 1] was run?
A: 2 to 8 µg/mL (≈ 4.8 to 19.2 µM)

Q: With `Nc1nc(N)c2nc(CNc3ccc4c(c3)OCO4)cnc2n1` [Compound 8] as the molecule, how does the MIC read?
A: 2 to 8 µg/mL (≈ 6.42 to 25.7 µM)

Q: With `Nc1nc(N)c2nc(CNc3cccc([N+](=O)[O-])c3)cnc2n1` [Compound 7] as the molecule, how does the MIC read?
A: < 2 µg/mL

test system: M. catarrhalis; assay: as above; format: cell-based; settings: Moraxella catarrhalis; Table 2; 90% inhibition of growth
Method: as §3, §4, §5

Q: `Nc1nc(N)c2nc(CNc3ccc([N+](=O)[O-])cc3O)cnc2n1` [Compound 12] was tested. Which MIC did it give?
A: 16 to 64 µg/mL (≈ 48.7 to 195 µM)

Q: For `CN(Cc1cnc2nc(N)nc(N)c2n1)c1ccc(C(=O)Nc2ccc(O)cc2)cc1` [Compound 1], which MIC is on record?
A: 2 to 8 µg/mL (≈ 4.8 to 19.2 µM)

Q: Which MIC does the source give for `Nc1nc(N)c2nc(CNc3ccc4c(c3)OCO4)cnc2n1` [Compound 8] here?
A: 2 to 8 µg/mL (≈ 6.42 to 25.7 µM)

Q: `Nc1nc(N)c2nc(CNc3cccc([N+](=O)[O-])c3)cnc2n1` [Compound 7] was tested. Which MIC did it give?
A: < 2 µg/mL

test system: P. aeruginosa; assay: as above; format: cell-based; settings: Pseudomonas aeruginosa; Table 2; 90% inhibition of growth
Method: as §3, §4, §5

Q: Which MIC does the source give for `Nc1nc(N)c2nc(CNc3ccc([N+](=O)[O-])cc3O)cnc2n1` [Compound 12] here?
A: > 64 µg/mL

Q: How did the MIC turn out when `CN(Cc1cnc2nc(N)nc(N)c2n1)c1ccc(C(=O)Nc2ccc(O)cc2)cc1` [Compound 1] was run?
A: > 64 µg/mL

Q: Which MIC does the source give for `Nc1nc(N)c2nc(CNc3ccc4c(c3)OCO4)cnc2n1` [Compound 8] here?
A: > 64 µg/mL

Q: For `Nc1nc(N)c2nc(CNc3cccc([N+](=O)[O-])c3)cnc2n1` [Compound 7], which MIC is on record?
A: > 64 µg/mL

test system: S. aureus; assay: as above; format: cell-based; settings: Staphylococcus aureus; Table 2; 90% inhibition of growth; read-out: MIC S. aureus
Method: as §3, §4, §5

Q: How did the MIC turn out when `Nc1nc(N)c2nc(CNc3ccc([N+](=O)[O-])cc3O)cnc2n1` [Compound 12] was run?
A: > 64 µg/mL

Q: `CN(Cc1cnc2nc(N)nc(N)c2n1)c1ccc(C(=O)Nc2ccc(O)cc2)cc1` [Compound 1] was tested. Which MIC did it give?
A: 16 to 64 µg/mL (≈ 38.4 to 154 µM)

Q: For `Nc1nc(N)c2nc(CNc3ccc4c(c3)OCO4)cnc2n1` [Compound 8], which MIC is on record?
A: 2 to 8 µg/mL (≈ 6.42 to 25.7 µM)

Q: How did the MIC turn out when `Nc1nc(N)c2nc(CNc3cccc([N+](=O)[O-])c3)cnc2n1` [Compound 7] was run?
A: < 2 µg/mL

test system: S. pneumoniae; assay: as above; format: cell-based; settings: Streptococcus pneumoniae; Table 2; 90% inhibition of growth
Method: as §3, §4, §5

Q: With `Nc1nc(N)c2nc(CNc3ccc([N+](=O)[O-])cc3O)cnc2n1` [Compound 12] as the molecule, how does the MIC read?
A: < 2 µg/mL

Q: `CN(Cc1cnc2nc(N)nc(N)c2n1)c1ccc(C(=O)Nc2ccc(O)cc2)cc1` [Compound 1] was tested. Which MIC did it give?
A: < 2 µg/mL

Q: Which MIC does the source give for `Nc1nc(N)c2nc(CNc3ccc4c(c3)OCO4)cnc2n1` [Compound 8] here?
A: 2 to 8 µg/mL (≈ 6.42 to 25.7 µM)

Q: For `Nc1nc(N)c2nc(CNc3cccc([N+](=O)[O-])c3)cnc2n1` [Compound 7], which MIC is on record?
A: < 2 µg/mL

test system: S. cerevisiae; assay: Microdilution susceptibility test (MIC), yeast as indicator of cytotoxicity; format: cell-based; settings: Saccharomyces cerevisiae; Table 2; 90% inhibition of growth
Description: The following table of compounds of one aspect of the invention have potent antimicrobial activity against S. aureus bacteria and are anticipated to have physical-chemical properties similar to those of orally absorbed and bioavailable drugs and drug-like compounds. Antibacterial activity for a variety of bacterial species are shown (S. aureus, S. pneumoniae, E. faecalis, M. catarrhalis, and H. influenzae). The yeast cell (S. cerevisiae) in this panel of organisms is an indicator of potential cytotoxicity in mammalian cells.
as §3, §5

Q: How did the MIC turn out when `Nc1nc(N)c2nc(CNc3ccc([N+](=O)[O-])cc3O)cnc2n1` [Compound 12] was run?
A: > 64 µg/mL

Q: With `CN(Cc1cnc2nc(N)nc(N)c2n1)c1ccc(C(=O)Nc2ccc(O)cc2)cc1` [Compound 1] as the molecule, how does the MIC read?
A: > 64 µg/mL

Q: How did the MIC turn out when `Nc1nc(N)c2nc(CNc3ccc4c(c3)OCO4)cnc2n1` [Compound 8] was run?
A: > 64 µg/mL

Q: How did the MIC turn out when `Nc1nc(N)c2nc(CNc3cccc([N+](=O)[O-])c3)cnc2n1` [Compound 7] was run?
A: > 64 µg/mL
